Assay results published in patent US20260042764A1, “COMPOSITIONS AND METHODS FOR INHIBITION OF KRAS” (TheRas, Inc., priority 2022, published 2026).
pIC50: −log10 of the molar value.

Key:
[1] = molecular target: T1, Avi-KRAS G12D (1-169) GppNHp/RAF1 RBD-3xFLAG (52-151) (Homo sapiens, UniProt P01116, G12D); assay: Raf1-KRAS G12D-GppNHP disruption HTRF assay (Biological Example 1); type: binding
T1 construct: Avi-KRAS G12D (1-169)
How it was run: (§1)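 Percent activity versus DMSO (100%) was derived from HTRF signal after KRAS–RAF1 RBD protein mix was incubated 1 h at room temperature with shaking and detection reagents were added for a further 1 h.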

[2] = molecular target: T2, Avi-KRAS G12R (1-169) GppNHp/RAF1 RBD-3xFLAG (52-151) (Homo sapiens, UniProt P01116, G12R); assay: Raf1-KRAS G12R-GppNHP disruption HTRF assay (Biological Example 1); type: binding
T2 construct: Avi-KRAS G12R (1-169)
T2 sequence (P01116 1-169 isoform P01116-2 G12R): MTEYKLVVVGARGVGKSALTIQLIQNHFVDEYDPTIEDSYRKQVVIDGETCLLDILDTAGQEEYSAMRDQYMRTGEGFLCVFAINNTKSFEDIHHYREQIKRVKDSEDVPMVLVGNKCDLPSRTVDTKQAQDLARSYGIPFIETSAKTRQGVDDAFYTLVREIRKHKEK
How it was run: as §1

[3] = molecular target: T3, Avi-KRAS G12V (1-169) GppNHp/RAF1 RBD-3xFLAG (52-151) (Homo sapiens, UniProt P01116, G12V); assay: Raf1-KRAS G12V-GppNHP disruption HTRF assay (Biological Example 1); type: binding
T3 construct: Avi-KRAS G12V (1-169)
T3 sequence (P01116 1-169 isoform P01116-2 G12V): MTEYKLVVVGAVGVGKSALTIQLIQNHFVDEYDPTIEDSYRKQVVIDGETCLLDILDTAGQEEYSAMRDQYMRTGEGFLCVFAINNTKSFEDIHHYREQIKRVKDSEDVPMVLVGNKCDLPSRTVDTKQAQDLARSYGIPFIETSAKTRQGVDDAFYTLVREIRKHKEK
How it was run: as §1

[4] = molecular target: T4, Avi-KRAS WT (1-169) GppNHp/RAF1 RBD-3xFLAG (52-151) (Homo sapiens, UniProt P01116); assay: Raf1-KRAS WT-GppNHP disruption HTRF assay (Biological Example 1); type: binding
T4 construct: Avi-KRAS WT (1-169)
T4 sequence (P01116 1-169 isoform P01116-2): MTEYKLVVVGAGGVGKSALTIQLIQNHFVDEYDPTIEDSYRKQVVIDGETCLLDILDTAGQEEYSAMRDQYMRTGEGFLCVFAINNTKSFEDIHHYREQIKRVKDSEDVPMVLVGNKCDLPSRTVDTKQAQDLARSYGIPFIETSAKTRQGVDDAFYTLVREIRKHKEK
How it was run: as §1

[5] = tested on: GP2d cells (KRAS G12D); assay: Cell-based pERK HTRF assay in GP2d cell (Biological Example 2); settings: GP2d (KRAS G12D) cells, pERK HTRF
How it was run: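 Phospho-ERK is measured by HTRF following a 60 min compound exposure at 0.25% DMSO, with a 9-point half-log curve topping at 1 μM or 100 nM.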

[6] = tested on: SW620 cells (KRAS G12V); assay: Cell-based pERK HTRF assay in SW620 cell (Biological Example 4); settings: pERK HTRF
How it was run: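 Read-out: HTRF pERK signal (excitation 320 nm, emission 615 nm) from lysates of SW620 cells after 4 h compound exposure. Dose range was 9 points, half-log steps from 1 μM, in 0.25% DMSO; antibody incubation ran 4–24 h at room temperature.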

[7] = KRAS G12D, GppNHp-loaded, class symbols
[8] = KRAS G12R, GppNHp-loaded, class symbols
[9] = KRAS G12V, GppNHp-loaded, class symbols
[10] = KRAS WT, GppNHp-loaded, class symbols
[11] = Homo sapiens, SW-620, SW620 (KRAS G12V) cells, class symbols
[12] = KRAS G12D, GppNHp-loaded, Table 11
[13] = KRAS G12R, GppNHp-loaded, Table 11
[14] = KRAS G12V, GppNHp-loaded, Table 11
[15] = KRAS WT, GppNHp-loaded, Table 11
[16] = Homo sapiens, SW-620, SW620 (KRAS G12V) cells

T1 sequence (P01116 1-169 isoform P01116-2 G12D): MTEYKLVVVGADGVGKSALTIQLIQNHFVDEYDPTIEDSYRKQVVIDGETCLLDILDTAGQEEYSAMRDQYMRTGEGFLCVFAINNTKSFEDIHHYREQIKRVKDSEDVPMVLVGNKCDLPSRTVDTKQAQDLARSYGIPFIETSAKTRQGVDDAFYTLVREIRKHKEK

pIC50 [1, 7]	pIC50 [2, 8]	pIC50 [3, 9]	pIC50 [4, 10]	pIC50 ([5]; GP2d, class symbols)	pIC50 [6, 11]	pIC50 ([5]; GP2d)	pIC50 [6, 16]	Structure (SMILES)	also measured
5.00 to 6.00	5.00 to 6.00	5.00 to 6.00	5.00 to 6.00	6.00 to 7.00	6.00 to 7.00	–	–	C[C@@H]1[C@H](N(C)c2nc(OC[C@]34C[C@@H](F)CN3CC3(CC3)C4)nc3c(F)c(-c4ccc(F)c5sc(N)c(C#N)c45)c(Cl)cc23)CCN1C(=O)C1CC1 [Compound 593]	–
> 7.00	6.00 to 7.00	6.00 to 7.00	6.00 to 7.00	> 7.00	> 7.00	–	–	CO[C@@H](C)C(=O)N1CC[C@H](N(c2nc(OC[C@@]34CCCN3C[C@H](F)C4)nc3c(F)c(-c4ccc(F)c5sc(N)c(C#N)c45)c(C(F)(F)F)cc23)C2CC2)C1 (atropisomer, axis not shown) [Compound 811]	–
> 7.00	> 7.00	> 7.00	> 7.00	> 7.00	> 7.00	–	–	CCN(c1nc(OC[C@@]23CCCN2C[C@H](F)C3)nc2c(F)c(-c3ccc(F)c4sc(N)c(C#N)c34)c(C(F)(F)F)cc12)[C@H]1CCN(C(=O)N2C[C@@H](F)[C@@H](F)C2)C1 (atropisomer, axis not shown) [Compound 609]	–
> 7.00	> 7.00	> 7.00	6.00 to 7.00	> 7.00	> 7.00	–	–	N#Cc1c(N)sc2c(F)ccc(-c3c(C(F)(F)F)cc4c(N5CCn6nc(C(=O)N7CCCC7)cc6C5)nc(OCC56CCCN5CC(F)C6)nc4c3F)c12 (stereo not drawn) [Compound 627]	–
6.00 to 7.00	5.00 to 6.00	5.00 to 6.00	5.00 to 6.00	6.00 to 7.00	6.00 to 7.00	–	–	CCN(c1nc(OC[C@@]23CCCN2C[C@H](F)C3)nc2c(F)c(-c3ccc(F)c4sc(N)c(C#N)c34)c(C(F)(F)F)cc12)[C@H]1CCN(C(=O)N(C)C)[C@H]1C (atropisomer, axis not shown) [Compound 798]	–

The remaining lines, values behind:

Structure (SMILES)	pIC50 [1, 7]	pIC50 [2, 8]	pIC50 [3, 9]	pIC50 [4, 10]	pIC50 ([5]; GP2d, class symbols)	pIC50 [6, 11]	pIC50 ([5]; GP2d)	pIC50 [6, 16]	also measured
C[C@@]1(O)CCCN(c2nc(OC[C@@]34CCCN3C[C@H](F)C4)nc3c(F)c(-c4ccc(F)c5sc(N)c(C#N)c45)c(C(F)(F)F)cc23)C1 [Compound 224]	–	–	–	–	–	–	> 7.00	> 7.00	pIC50 [1, 12]: 6.00 to 7.00; pIC50 [2, 13]: 6.00 to 7.00; pIC50 [3, 14]: 6.00 to 7.00; pIC50 [4, 15]: 6.00 to 7.00
C[C@@H]1[C@H](N(C)c2nc(OC[C@@]34CCCN3C[C@H](F)C4)nc3c(F)c(-c4ccc(F)c5sc(N)c(C#N)c45)c(C(F)(F)F)cc23)CCN1C(=O)C1(C)CC1 [Compound 313]	–	–	–	–	–	–	> 7.00	> 7.00	pIC50 ([1]; KRAS G12D-GppNHp/RAF1 RBD HTRF): 6.00 to 7.00; pIC50 ([2]; KRAS G12R-GppNHp/RAF1 RBD HTRF): 6.00 to 7.00; pIC50 ([3]; KRAS G12V-GppNHp/RAF1 RBD HTRF): 6.00 to 7.00; pIC50 ([4]; KRAS WT-GppNHp/RAF1 RBD HTRF): 6.00 to 7.00
CN(c1nc(OC[C@@]23CCCN2C[C@H](F)C3)nc2c(F)c(-c3ccc(F)c4sc(N)c(C#N)c34)c(C(F)(F)F)cc12)[C@]1(CC#N)C[C@@H](O)C1 (atropisomer, axis not shown) [Compound 254]	–	–	–	–	–	–	–	–	pIC50 [1, 12]: 6.00 to 7.00; pIC50 [2, 13]: 5.00 to 6.00; pIC50 [3, 14]: 5.00 to 6.00; pIC50 [4, 15]: 6.00 to 7.00; pIC50 [5]: 6.00 to 7.00; pIC50 ([6]; SW620 (KRAS G12V) cells): < 6.00
CCN(c1nc(OC[C@@]23CCCN2C[C@H](F)C3)nc2c(F)c(-c3ccc(F)c4sc(N)c(C#N)c34)c(C(F)(F)F)cc12)[C@H]1CC(=O)N(C2CC2)C1 [Compound 496]	–	–	–	–	–	–	> 7.00	6.00 to 7.00	pIC50 ([1]; KRAS G12D-GppNHp/RAF1 RBD HTRF): 6.00 to 7.00; pIC50 ([2]; KRAS G12R-GppNHp/RAF1 RBD HTRF): 5.00 to 6.00; pIC50 ([3]; KRAS G12V-GppNHp/RAF1 RBD HTRF): 5.00 to 6.00; pIC50 ([4]; KRAS WT-GppNHp/RAF1 RBD HTRF): 5.00 to 6.00
CC(=O)N1C[C@H]2CCCN(c3nc(OC[C@@]45CCCN4C[C@H](F)C5)nc4c(F)c(-c5ccc(F)c6sc(N)c(C#N)c56)c(C(F)(F)F)cc34)[C@H]2C1 [Compound 453]	–	–	–	–	–	–	> 7.00	> 7.00	pIC50 ([1]; KRAS G12D-GppNHp/RAF1 RBD HTRF): 5.00 to 6.00; pIC50 ([2]; KRAS G12R-GppNHp/RAF1 RBD HTRF): 5.00 to 6.00; pIC50 ([3]; KRAS G12V-GppNHp/RAF1 RBD HTRF): 5.00 to 6.00; pIC50 ([4]; KRAS WT-GppNHp/RAF1 RBD HTRF): 5.00 to 6.00
CCN(c1nc(OC[C@@]23CCCN2C[C@H](F)C3)nc2c(F)c(-c3ccc(F)c4sc(N)c(C#N)c34)c(C(F)(F)F)cc12)[C@@H]1C[C@H](C)N(C(=O)C2CC2)C1 (atropisomer, axis not shown) [Compound 588]	6.00 to 7.00	6.00 to 7.00	6.00 to 7.00	6.00 to 7.00	> 7.00	> 7.00	–	–	–
